Here are results for 18 compounds from ChEMBL document CHEMBL3351613, “Indolylarylsulfones carrying a heterocyclic tail as very potent and broad spectrum HIV-1 non-nucleoside reverse transcriptase inhibitors” (J Med Chem, 2014).

Where only a bound is given, the exact number is not on record here.

The nature of one series: in vitro. To be noted: human, MT4 cells.
Series [1] in a line: Cytotoxic activity against human MT4 cells by MTT assay. The series is classed as cell-based.
In series [2] the test system is Human immunodeficiency virus 1. The series is classed as functional, organism-based. To be noted: Human immunodeficiency virus 1, NL4-3, MT4.
Series [3] has as its system Human immunodeficiency virus 1. It is filed as functional, organism-based. To be noted: Human immunodeficiency virus 1, NL4-3, MT4. The source holds these as a separate data set.
For series [4], the system named is Human immunodeficiency virus 1. As to the kind of experiment: Antiviral activity against HIV1 NL4-3 infected in human MT4 cells assessed as reduction in virus-induced cell death by MTT assay. To be noted: Human immunodeficiency virus 1, NL4-3, MT4. The series is classed as functional, organism-based.
Series [5] deals with Human immunodeficiency virus 1. The series is classed as functional, organism-based. To be noted: Human immunodeficiency virus 1, NL4-3, MT4. This is another data set of the same source.
Series [6] deals with Human immunodeficiency virus 1. Put plainly: Antiviral activity against HIV1 NL4-3 expressing reverse transcriptase K103N mutant infected in human MT4 cells assessed as reduction in virus-induced cell death by MTT assay. The series is classed as functional, organism-based. To be noted: Human immunodeficiency virus 1, NL4-3, MT4. (In general: Formazan colour is commonly taken as a measure of viable cells.)

Series [7] has as its target Human immunodeficiency virus type 1 reverse transcriptase (Human immunodeficiency virus 1, UniProt Q72547).
Description: Inhibition of wild type HIV1 reverse transcriptase assessed as reduction in enzyme activity
Series [8] concerns the target Human immunodeficiency virus type 1 reverse transcriptase (Human immunodeficiency virus 1, UniProt Q72547, L100I).
Description: Inhibition of wild type HIV1 reverse transcriptase L100I mutant assessed as reduction in enzyme activity
The test system of series [9] is Human immunodeficiency virus 2. As to the kind of experiment: Antiviral activity against HIV2 ROD infected in human CEM cells assessed as protection against virus-induced cytopathicity by giant cell formation assay. It is filed as functional, organism-based. To be noted: Human immunodeficiency virus 2, ISOLATE ROD, CCRF-CEM. In general terms: Protection from cytopathic effect is a common read-out in antiviral testing.

The test system of series [10] is Human immunodeficiency virus 1. Put plainly: Antiviral activity against HIV1 3B infected in human CEM cells assessed as protection against virus-induced cytopathicity by giant cell formation assay. The series is classed as functional, organism-based. The conditions noted are these: Human immunodeficiency virus 1, 3B, CCRF-CEM.
For series [11], the target named is Human immunodeficiency virus type 1 reverse transcriptase (Human immunodeficiency virus 1, UniProt Q72547, Y181I).
Series [12] deals with Human immunodeficiency virus type 1 reverse transcriptase (Human immunodeficiency virus 1, UniProt Q72547, K103N).
Description: Inhibition of wild type HIV1 reverse transcriptase K103N mutant assessed as reduction in enzyme activity
Series [13] concerns Human immunodeficiency virus 1. Put plainly: Antiviral activity against HIV1 NL4-3 expressing reverse transcriptase L100I mutant infected in human MT4 cells assessed as reduction in virus-induced cell death by MTT assay. The series is classed as functional, organism-based. To be noted: Human immunodeficiency virus 1, NL4-3, MT4.

Description for in vitro: Selectivity index, ratio of CC50 for human MT4 cells to EC50 for HIV1 NL4-3 infected in human MT4 cells

In the case of `Cc1cccc(C)c1S(=O)(=O)c1c(C(N)=O)[nH]c2ccc(Cl)cc12`, in the series “in vitro”, the selectivity ratio is greater than 1110. This compound also came in with a CC50 in series [1] greater than 48900 nM. In addition, the concentration for a half-maximal effect (EC50) is greater than 48900 nM in series [2]; 42700 nM in [3]; 44.1 nM in series [4]; greater than 48900 nM in [5]; greater than 49400 nM in [6].

For `Cc1cc(C)cc(S(=O)(=O)c2c(C(=O)NCc3cccs3)[nH]c3ccc(Cl)cc23)c1`, in “in vitro”, the selectivity ratio was greater than 77800. The IC50 in [7] is 30 nM; in [8] it was 100 nM; in [11], greater than 20000 nM; in series [12] it was greater than 20000 nM. The cytotoxic concentration (CC50) in series [1] is greater than 54500 nM. For the same compound, the EC50 is 160 nM in series [3]; greater than 10000 nM in series [9]; 0.7 nM in series [4]; 5.2 nM in series [10]; 7.1 nM in series [13]; greater than 54500 nM in series [5]. Besides, the concentration for a half-maximal effect (EC50) in [6] amounted to 9.1 nM.

For `Cc1cccc(C)c1S(=O)(=O)c1c(C(=O)NCc2ccncc2)[nH]c2ccc(Cl)cc12`, the selectivity ratio in the series “in vitro” was greater than 167. Moreover, in series [1], the CC50 is greater than 55100 nM. The half-maximal effective concentration (EC50) in series [2] is greater than 55100 nM; in series [3], greater than 55100 nM; in series [4], 330 nM; in [5] it was greater than 55100 nM; in series [6], greater than 55100 nM.

With `Cc1cc(C)cc(S(=O)(=O)c2c(C(=O)NCc3ccco3)[nH]c3ccc(Cl)cc23)c1`, the selectivity ratio in “in vitro” is greater than 282000. The IC50 worked out at 3 nM in series [7], 234 nM in series [11] and 9 nM in series [12]. Further, in [1], the cytotoxic concentration (CC50) is greater than 56400 nM. Moreover, the concentration giving a half-maximal response (EC50) was 45 nM in series [2], 0.8 nM in [3], 0.2 nM in series [4] and 971 nM in series [5].

As to `NC(=O)c1[nH]c2ccc(Cl)cc2c1S(=O)(=O)c1c(Cl)cccc1Cl`, the selectivity ratio in the series “in vitro” worked out at 64100. Also, the cytotoxic concentration (CC50) in series [1] worked out at 16000 nM. In addition, the EC50 is greater than 16000 nM in series [2]; 5170 nM in series [3]; 0.25 nM in [4]; 16000 nM in [5]; greater than 16000 nM in series [6].

As to `Cc1cc(C)cc(S(=O)(=O)c2c(C(=O)NCc3ccncn3)[nH]c3ccc(Cl)cc23)c1`, in the series “in vitro”, the selectivity ratio was greater than 250000. The figures for the 50% inhibitory concentration (IC50) in series [7], in series [11] and in series [12] were 42 nM, 4.2 nM and 96 nM, respectively. In addition, the CC50 in [1] was greater than 55000 nM. Besides, the EC50 in series [2] amounted to 50.6 nM; in series [3], 2.2 nM; in series [4], 0.22 nM; in series [5], 132 nM.

On to `Cc1cc(C)cc(S(=O)(=O)c2c(C(=O)NCc3ccccc3)[nH]c3ccc(Cl)cc23)c1`, for which, in the series “in vitro”, the selectivity ratio is 173000. The midpoint of cytotoxicity in series [1], the CC50, lay at 38000 nM. The EC50 in [2] was determined as 90 nM; in series [4] it was 0.22 nM; in [5], 1920 nM; in [6], 0.9 nM. In addition, the concentration for half-maximal inhibition (IC50) in [11] and in [12] was greater than 20000 nM in each case.

As for `Cc1cc(C)cc(S(=O)(=O)c2c(C(=O)NN(C)c3ccccc3)[nH]c3ccc(Cl)cc23)c1`, the selectivity ratio in the series “in vitro” stood at 21000. Besides, the IC50 in [7] was 16 nM; in series [11], greater than 20000 nM; in series [12], 234 nM. Besides, the midpoint of cytotoxicity in [1], the CC50, lay at 44100 nM. For the same compound, the EC50 was greater than 42700 nM in series [2]; 1470 nM in series [3]; 2.1 nM in series [4]; greater than 42700 nM in series [5]; 64.1 nM in [6].

As for `Cc1cc(C)cc(S(=O)(=O)c2c(C(=O)Nc3cccc(N)c3)[nH]c3ccc(Cl)cc23)c1`, the selectivity ratio in the series “in vitro” was determined as 108000. Further, the IC50 in series [7] is 19 nM; in [11] it was 226 nM; in series [12], 310 nM. Moreover, in series [1], the CC50 came out at 23800 nM. Besides, the EC50 in [2] turned out to be 947 nM; in [3], 66 nM; in series [4], 0.22 nM; in series [10] it was 17 nM; in [13], 57 nM; in series [5] it was 2140 nM. Moreover, the EC50 in [6] amounted to 4.4 nM.

Regarding `Cc1cc(C)cc(S(=O)(=O)c2c(C(=O)NC(C)c3ccccc3)[nH]c3ccc(Cl)cc23)c1` (stereo unspecified), the selectivity ratio in the series “in vitro” is greater than 206000. In series [1], this compound returned a half-maximal cytotoxic concentration (CC50) greater than 53500 nM. For the same compound, the half-inhibitory concentration (IC50) in series [8] was found to be 70 nM; in series [11], 8230 nM. Further, the EC50 in [9] was greater than 10000 nM; in [13], 26 nM.

With `O=C(NCc1ccncc1)c1[nH]c2ccc(Cl)cc2c1S(=O)(=O)c1c(Cl)cccc1Cl`, the selectivity ratio in “in vitro” is greater than 62400. Besides, the CC50 in [1] is greater than 50300 nM. The 50% effective concentration (EC50) in [2] was greater than 50500 nM; in [3] it was 2530 nM; in series [4] it was 0.81 nM; in [5], greater than 50500 nM; in [6], 5260 nM.

Turning to `Cc1cc(C)cc(S(=O)(=O)c2c(C(=O)Nc3ccncc3)[nH]c3ccc(Cl)cc23)c1`, the selectivity ratio in “in vitro” worked out at 89600. In series [1], half-maximal cytotoxicity (CC50) was put at 20600 nM. Besides, the EC50 is 1270 nM in series [2], 16 nM in series [3], 0.23 nM in series [4] and greater than 20600 nM in [5].

In [1], `Cc1ccnc2c1NC(=O)c1cccnc1N2C1CC1` [NEVIRAPINE] came in with a CC50 greater than 18800 nM. Besides, the EC50 was greater than 3760 nM in [2]; greater than 3760 nM in series [3]; 112 nM in series [4]; 60 nM in series [13]; greater than 3760 nM in [5]; greater than 3760 nM in [6].

For the compound `O=C1Nc2ccc(Cl)cc2[C@@](C#CC2CC2)(C(F)(F)F)O1` [EFAVIRENZ], the CC50 in series [1] was greater than 15800 nM. For the same compound, the 50% effective concentration (EC50) is 22 nM in series [13] and greater than 317 nM in series [5].

Turning to `Cc1cc(C)cc(S(=O)(=O)c2c(C(=O)NNc3ccncc3)[nH]c3ccc(Cl)cc23)c1`, the selectivity ratio in “in vitro” was determined as 727. The IC50 was greater than 20000 nM in series [7], 9400 nM in series [8], greater than 20000 nM in series [11] and greater than 20000 nM in series [12]. The compound also registered a CC50 in [1] of 30300 nM. Further, the EC50 in series [3] was greater than 20000 nM; in series [9], no less than 50000 nM; in [4], 41.7 nM; in [10], 730 nM; in series [5], 55000 nM; in series [6] it was 16000 nM.

With `Cc1cc(C)cc(S(=O)(=O)c2c(C(=O)NCCc3ccccc3)[nH]c3ccc(Cl)cc23)c1`, the selectivity ratio in “in vitro” worked out at 18000. Besides, it took 37900 nM to reach half-maximal cytotoxicity in [1] (CC50). Besides, the EC50 in series [2] is greater than 36400 nM; in [3], 107 nM; in series [4], 2.1 nM; in series [5] it was greater than 53500 nM; in series [6], 21 nM. This compound displayed an IC50 in series [11] greater than 20000 nM.

As to `Cc1cc(C)cc(S(=O)(=O)c2c(C(=O)NC(C)c3cccs3)[nH]c3ccc(Cl)cc23)c1` (stereo unspecified), the selectivity ratio in “in vitro” is 162000. For the same compound, the IC50 in [7] amounted to 27 nM; in series [12], 79 nM. In series [1], this compound yielded a CC50 of 32300 nM. Moreover, the half-maximal effective concentration (EC50) came to 347 nM in series [2]; 68 nM in [3]; 0.2 nM in [4]; 2640 nM in series [5]; 2.1 nM in series [6].

The compound `Cc1cc(C#N)cc(C)c1Oc1nc(Nc2ccc(C#N)cc2)nc(N)c1Br` [ETRAVIRINE] displayed a CC50 in series [1] greater than 30600 nM. Besides, the EC50 worked out at 33 nM in [2]; 6 nM in series [3]; 3.7 nM in series [4]; 16 nM in [5]; 16 nM in series [6].

In general, CC50 refers to the concentration at which the toxic effect on the cells reaches its halfway point. Lower therefore signals harm at low concentration. The term EC50 denotes the midpoint of the concentration-response curve. By IC50 is commonly meant the concentration that gives 50% inhibition.
